These results are taken from ChEMBL document CHEMBL4414655, “Position Effect of Fatty Acid Modification on the Cytotoxicity and Antimetastasis Potential of the Cytotoxic Peptide Lycosin-I” (J Med Chem, 2019).

In data set [1] the test system is A549. Description: Induction of cell membrane disruption in human A549 cells assessed as LDH release at 3.25 uM incubated for 30 mins by fluorescence based assay relative to control.
The test system of data set [2] is HEK-293T. Description: Cytotoxicity in human HEK293T cells assessed as reduction in cell viability incubated for 24 hrs by CCK8 assay. Type of data set: cell-based. The following applies: human, hek-293t.
Data set [3] concerns A549. The data set is described as follows: Cytotoxicity in human A549 cells assessed as reduction in cell viability incubated for 24 hrs by CCK8 assay. Type of data set: functional, cell-based. Particulars: A549, 24 h. (Tetrazolium dyes change colour on reduction, which living cells bring about.)
Data set [4] deals with A549. Description: Potency index, ratio of IC50 for lycosin-I to IC50 for test compound for cytotoxicity in human A549 cells assessed as reduction in cell viability at 0.78 to 50 uM incubated for 24 hrs by CCK8 assay. Type of data set: functional.
Data set [5] relates to A549. The data set is described as follows: Cytotoxicity in human A549 cells assessed as reduction in cell viability by trypan blue staining method. Type of data set: functional, cell-based.
The species named for data set [6] is Homo sapiens. The data set is described as follows: Induction of cell membrane disruption in human erythrocytes cells assessed as induction of hemolysis at 0.098 to 50 uM incubated for 1 hr by fluorescence based assay relative to control. Type of data set: cell membranes.
Data set [7] deals with B16-F10. Description: Cytotoxicity in mouse B16/F10 cells assessed as reduction in cell viability incubated for 24 hrs by CCK8 assay. Type of data set: functional, cell-based. The following applies: B16-F10, 24 h.

The source made the active and inactive calls. The rule behind the calls is not given here. Residues, ends and D or L forms follow the SMILES beside them. *: point of attachment. Lauroyl = CCCCCCCCCCCC(=O)*

Regarding `CCCCCCCCCCCC(=O)NCCCC[C@H](N)C(=O)NCC(=O)N[C@@H](Cc1c[nH]c2ccccc12)C(=O)N[C@@H](Cc1ccccc1)C(=O)N[C@@H](CCCCN)C(=O)N[C@@H](C)C(=O)N[C@@H](CCSC)C(=O)N[C@@H](CCCCN)C(=O)N[C@@H](CO)C(=O)N[C@H](C(=O)N[C@@H](C)C(=O)N[C@@H](CCCCN)C(=O)N[C@@H](Cc1ccccc1)C(=O)N[C@H](C(=O)N[C@@H](C)C(=O)N[C@@H](CCCCN)C(=O)N[C@@H](CCC(=O)O)C(=O)N[C@@H](CCCCN)C(=O)N[C@@H](CC(C)C)C(=O)N[C@@H](CCCCN)C(=O)N[C@@H](CCC(=O)O)C(=O)N[C@@H](Cc1cnc[nH]1)C(=O)N[C@@H](CC(C)C)C(=O)O)[C@@H](C)CC)[C@@H](C)CC` (H-K(Lauroyl)GWFKAMKSIAKFIAKEKLKEHL-OH), the Activity is listed as 51.3% in data set [1] and “Toxic” in data set [2]. Further, the IC50 in data set [3] worked out at 3.1 µM; in data set [7], 2 µM. Moreover, the “Ratio IC50” value in data set [4] was 4 - 15. Also, the outcome in data set [5] and in data set [6] was Active.
Turning to `CCCCCCCCCCCC(=O)NCCCC[C@H](NC(=O)[C@H](Cc1ccccc1)NC(=O)[C@H](Cc1c[nH]c2ccccc12)NC(=O)CNC(=O)[C@@H](N)CCCCN)C(=O)N[C@@H](C)C(=O)N[C@@H](CCSC)C(=O)N[C@@H](CCCCN)C(=O)N[C@@H](CO)C(=O)N[C@H](C(=O)N[C@@H](C)C(=O)N[C@@H](CCCCN)C(=O)N[C@@H](Cc1ccccc1)C(=O)N[C@H](C(=O)N[C@@H](C)C(=O)N[C@@H](CCCCN)C(=O)N[C@@H](CCC(=O)O)C(=O)N[C@@H](CCCCN)C(=O)N[C@@H](CC(C)C)C(=O)N[C@@H](CCCCN)C(=O)N[C@@H](CCC(=O)O)C(=O)N[C@@H](Cc1cnc[nH]1)C(=O)N[C@@H](CC(C)C)C(=O)O)[C@@H](C)CC)[C@@H](C)CC` (H-KGWFK(Lauroyl)AMKSIAKFIAKEKLKEHL-OH), the Activity in data set [1] was 23.1%; in data set [2] it was “Toxic”. In addition, the IC50 in data set [3] was determined as 7.7 µM; in data set [7] it was 2 µM. In data set [4], the “Ratio IC50” value is listed as 4 - 15. The result in data set [5] and in data set [6] was Active.
With `CCCCCCCCCCCC(=O)NCCCC[C@H](NC(=O)[C@H](CCSC)NC(=O)[C@H](C)NC(=O)[C@H](CCCCN)NC(=O)[C@H](Cc1ccccc1)NC(=O)[C@H](Cc1c[nH]c2ccccc12)NC(=O)CNC(=O)[C@@H](N)CCCCN)C(=O)N[C@@H](CO)C(=O)N[C@H](C(=O)N[C@@H](C)C(=O)N[C@@H](CCCCN)C(=O)N[C@@H](Cc1ccccc1)C(=O)N[C@H](C(=O)N[C@@H](C)C(=O)N[C@@H](CCCCN)C(=O)N[C@@H](CCC(=O)O)C(=O)N[C@@H](CCCCN)C(=O)N[C@@H](CC(C)C)C(=O)N[C@@H](CCCCN)C(=O)N[C@@H](CCC(=O)O)C(=O)N[C@@H](Cc1cnc[nH]1)C(=O)N[C@@H](CC(C)C)C(=O)O)[C@@H](C)CC)[C@@H](C)CC` (H-KGWFKAMK(Lauroyl)SIAKFIAKEKLKEHL-OH), the Activity in data set [1] is reported as 25.7%; in data set [2], “Toxic”. The 50% inhibitory concentration (IC50) is 7.3 µM in data set [3] and 2 µM in data set [7]. Also, in data set [4], the “Ratio IC50” value is recorded as 4 - 15. Besides, the outcome in data set [5] and in data set [6] was Active.
Turning to `CCCCCCCCCCCC(=O)NCCCC[C@H](NC(=O)[C@H](C)NC(=O)[C@@H](NC(=O)[C@H](CO)NC(=O)[C@H](CCCCN)NC(=O)[C@H](CCSC)NC(=O)[C@H](C)NC(=O)[C@H](CCCCN)NC(=O)[C@H](Cc1ccccc1)NC(=O)[C@H](Cc1c[nH]c2ccccc12)NC(=O)CNC(=O)[C@@H](N)CCCCN)[C@@H](C)CC)C(=O)N[C@@H](Cc1ccccc1)C(=O)N[C@H](C(=O)N[C@@H](C)C(=O)N[C@@H](CCCCN)C(=O)N[C@@H](CCC(=O)O)C(=O)N[C@@H](CCCCN)C(=O)N[C@@H](CC(C)C)C(=O)N[C@@H](CCCCN)C(=O)N[C@@H](CCC(=O)O)C(=O)N[C@@H](Cc1cnc[nH]1)C(=O)N[C@@H](CC(C)C)C(=O)O)[C@@H](C)CC` (H-KGWFKAMKSIAK(Lauroyl)FIAKEKLKEHL-OH), the Activity is reported as 38.5% in data set [1] and “Toxic” in data set [2]. The figures for the IC50 in data set [3] and in data set [7] were 4.9 µM and 2 µM, respectively. Besides, in data set [4], the “Ratio IC50” value is 4 - 15. Also, the result in data set [5] and in data set [6] was Active.
Turning to `CCCCCCCCCCCC(=O)NCCCC[C@H](NC(=O)[C@H](C)NC(=O)[C@@H](NC(=O)[C@H](Cc1ccccc1)NC(=O)[C@H](CCCCN)NC(=O)[C@H](C)NC(=O)[C@@H](NC(=O)[C@H](CO)NC(=O)[C@H](CCCCN)NC(=O)[C@H](CCSC)NC(=O)[C@H](C)NC(=O)[C@H](CCCCN)NC(=O)[C@H](Cc1ccccc1)NC(=O)[C@H](Cc1c[nH]c2ccccc12)NC(=O)CNC(=O)[C@@H](N)CCCCN)[C@@H](C)CC)[C@@H](C)CC)C(=O)N[C@@H](CCC(=O)O)C(=O)N[C@@H](CCCCN)C(=O)N[C@@H](CC(C)C)C(=O)N[C@@H](CCCCN)C(=O)N[C@@H](CCC(=O)O)C(=O)N[C@@H](Cc1cnc[nH]1)C(=O)N[C@@H](CC(C)C)C(=O)O` (H-KGWFKAMKSIAKFIAK(Lauroyl)EKLKEHL-OH), the Activity is reported as 34.6% in data set [1] and “Toxic” in data set [2]. Moreover, the IC50 in data set [3] stood at 4.6 µM; in data set [7], 2 µM. The “Ratio IC50” value in data set [4] was 4 - 15. Moreover, the outcome in data set [5] and in data set [6] was Active.
Consider `CCCCCCCCCCCC(=O)NCCCC[C@H](NC(=O)[C@H](CCC(=O)O)NC(=O)[C@H](CCCCN)NC(=O)[C@H](C)NC(=O)[C@@H](NC(=O)[C@H](Cc1ccccc1)NC(=O)[C@H](CCCCN)NC(=O)[C@H](C)NC(=O)[C@@H](NC(=O)[C@H](CO)NC(=O)[C@H](CCCCN)NC(=O)[C@H](CCSC)NC(=O)[C@H](C)NC(=O)[C@H](CCCCN)NC(=O)[C@H](Cc1ccccc1)NC(=O)[C@H](Cc1c[nH]c2ccccc12)NC(=O)CNC(=O)[C@@H](N)CCCCN)[C@@H](C)CC)[C@@H](C)CC)C(=O)N[C@@H](CC(C)C)C(=O)N[C@@H](CCCCN)C(=O)N[C@@H](CCC(=O)O)C(=O)N[C@@H](Cc1cnc[nH]1)C(=O)N[C@@H](CC(C)C)C(=O)O` (H-KGWFKAMKSIAKFIAKEK(Lauroyl)LKEHL-OH), for which the Activity is 40.2% in data set [1] and “Toxic” in data set [2]. The IC50 in data set [3] worked out at 5.1 µM; in data set [7] it was 2 µM. The “Ratio IC50” value in data set [4] is 4 - 15. For the same compound, the result in data set [5] and in data set [6] was Active.
Consider `CCCCCCCCCCCC(=O)NCCCC[C@H](NC(=O)[C@H](CC(C)C)NC(=O)[C@H](CCCCN)NC(=O)[C@H](CCC(=O)O)NC(=O)[C@H](CCCCN)NC(=O)[C@H](C)NC(=O)[C@@H](NC(=O)[C@H](Cc1ccccc1)NC(=O)[C@H](CCCCN)NC(=O)[C@H](C)NC(=O)[C@@H](NC(=O)[C@H](CO)NC(=O)[C@H](CCCCN)NC(=O)[C@H](CCSC)NC(=O)[C@H](C)NC(=O)[C@H](CCCCN)NC(=O)[C@H](Cc1ccccc1)NC(=O)[C@H](Cc1c[nH]c2ccccc12)NC(=O)CNC(=O)[C@@H](N)CCCCN)[C@@H](C)CC)[C@@H](C)CC)C(=O)N[C@@H](CCC(=O)O)C(=O)N[C@@H](Cc1cnc[nH]1)C(=O)N[C@@H](CC(C)C)C(=O)O` (H-KGWFKAMKSIAKFIAKEKLK(Lauroyl)EHL-OH), for which the Activity in data set [1] was 36.6%; in data set [2] it was “Toxic”. In addition, the IC50 turned out to be 5 µM in data set [3] and 2 µM in data set [7]. Besides, the “Ratio IC50” value in data set [4] is given as 4 - 15. For the same compound, the outcome in data set [5] and in data set [6] was Active.

By IC50 is commonly meant the concentration needed to halve the response being measured.
